Experimental data published in article PMC7408547, “Bivalent Inhibitor with Selectivity for Trimeric MMP-9 Amplifies Neutrophil Chemotaxis and Enables Functional Studies on MMP-9 Proteoforms” (Cells, 2020).

Tests used:
[1] = biological target: T1, human neutrophil-derived MMP-9 monomers (Homo sapiens, UniProt P14780); test: Gelatin degradation assay, neutrophil-derived MMP-9 monomers; format: biochemical; settings: MMP-9 isolated from human neutrophils, mono
T1 construct: purchased Sigma-Aldrich 444,231; host or cells: human neutrophils (natural protein)
Experimental: Compounds 5 and 7 were synthesized as previously reported. Full-length human proMMP-9 was produced by recombinant expression in Sf9 insect cells and purified by gelatin-Sepharose chromatography as previously described. Stable full-length proMMP-9 monomers and trimers were separated by glycerol gradient ultracentrifugation as previously described. ProMMP-9 mixture and the separated monomers and trimers were activated by incubation with the catalytic domain of MMP-3 (cat. No. 444217, Merck Millipore, Darmstadt, Germany) as previously described. Activation of proMMP-9 was confirmed by a band shift of ±10 kDa, corresponding to the removal of the auto-inhibitory propeptide domain and by detection of gelatinolytic activity with a previously described gelatin degradation assay. MMP-9 monomers and trimers purified from human neutrophils were purchased (Cat. No. 444,231 and 444232, Sigma-Aldrich, St. Louis, MO, USA). Examples of sample purities and activations can be found in Supplementary Figure S1. Recombinant human proMMP-2 (CHO cell-derived), proMMP-3 (NS0 cell-derived), proMMP-7 (NS0 cell-derived) and proMMP-8 (NS0 cell-derived) were purchased from R & D systems (Minneapolis, MN, USA), dissolved in assay buffer (150 mM NaCl, 5 mM CaCl2, 0.01% Tween-20, 50 mM Tris, pH 7.4) to a concentration of 100 µg/mL and activated by incubation with 1 mM p-aminophenylmercuric acetate for, respectively, 1h, 6h, 2h and 1h. Activation of MMPs was confirmed by a band shift of approximately 10 kDa, corresponding to the removal of the propeptide domain. MMP-14/MT1-MMP (NS0 cell-derived) was also purchased from R & D systems (Minneapolis, MN, USA) and activated by incubation with recombinant human furin (cat. No. 1503-SE-010, R & D systems, Minneapolis, MO, USA) in activation buffer (50 mM Tris, 1 mM CaCl2, 0.5% Brij-35, pH 9) for 1.5 h and activity was tested in assay buffer (50 mM Tris, 3 mM CaCl2, 1 µM ZnCl2, pH 8.5). Active human neutrophil elastase (NE) was purchased from Abcam (Cambridge, UK) and for activity assays of NE the assay buffer was replaced by 200 mM Tris, pH 8.8. ADAM17/TACE (Sf 21 (baculovirus)-derived, R & D systems, Minneapolis, MO, USA) was diluted and evaluated in 25 mM Tris, 2.5 μM ZnCl2, 0.005% Brij-35, pH 9.0. All stocks of the compounds were evaluated for the presence of endotoxin using the EndoZyme II assay (Hyglos bioMérieux, Bernried am Starnberger See, Germany). Endotoxin levels in all concentrated stocks (2.5 mg/mL) were below the accepted limit of 0.5 EU/mL.
To determine the inhibition of gelatinolytic activity, we used a previously optimized gelatin degradation assay. Activated MMP-9, activated MMP-2, neutrophil elastase or supernatants of stimulated neutrophils, were incubated with different concentrations of inhibitors and incubated for 30 min at 37 °C. Next, dye-quenched gelatin (DQ™-gelatin, Invitrogen, Carlsbad, CA, USA) was added at a final concentration of 2.5 µg/mL and the increase in fluorescence over time was measured with the CLARIOstar microplate reader (BMG Labtech, Ortenberg, Germany). For other MMPs, the OmniMMP substrate peptide (Mca-PLGL-Dpa-AR-NH2, cat. no. BML-P126-0001, Enzo Life Sciences, Farmingdale, NY, USA) was used at a final concentration of 2.5 µg/mL. For ADAM17 the fluorogenic peptide Mca-PLAQAV-Dpa-RSSSR-NH2 (ES003, R & D systems, Minneapolis, MO, USA) and for neutrophil elastase the fluorogenic substrate MeOSuc-AAPV-AMC (cat. no. 324740, Merck Millipore, Darmstadt, Germany) were used. Proteolytic activity was determined by linear regression of the fluorescence curve and the percentage inhibition was calculated through comparison with the positive control (no inhibitors). When testing supernatants from human neutrophils, the assay was performed in the presence of 20 µM neutrophil elastase inhibitor (Elastase Inhibitor IV, Calbiochem, Darmstadt, Germany).

[2] = biological target: T2, neutrophil elastase (Homo sapiens, UniProt P08246); test: Neutrophil elastase activity assay (fluorogenic elastase peptide and gelatin); format: biochemical; settings: fluorogenic elastase substrate and gelatin; tested up to an inhibitor concentration of 50 µM
T2 construct: Active human neutrophil elastase (NE) was purchased from Abcam; purchased Abcam
T2 sequence (P08246 30-267): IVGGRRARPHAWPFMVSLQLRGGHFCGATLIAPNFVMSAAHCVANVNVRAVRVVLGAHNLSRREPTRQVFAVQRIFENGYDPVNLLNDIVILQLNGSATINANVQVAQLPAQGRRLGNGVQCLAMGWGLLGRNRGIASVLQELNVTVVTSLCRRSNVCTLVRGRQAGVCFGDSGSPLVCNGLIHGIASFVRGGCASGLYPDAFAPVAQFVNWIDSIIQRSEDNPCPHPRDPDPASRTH
Experimental: Compounds 5 and 7 were synthesized as previously reported. Full-length human proMMP-9 was produced by recombinant expression in Sf9 insect cells and purified by gelatin-Sepharose chromatography as previously described. Stable full-length proMMP-9 monomers and trimers were separated by glycerol gradient ultracentrifugation as previously described. ProMMP-9 mixture and the separated monomers and trimers were activated by incubation with the catalytic domain of MMP-3 (cat. No. 444217, Merck Millipore, Darmstadt, Germany) as previously described. […] ADAM17/TACE (Sf 21 (baculovirus)-derived, R & D systems, Minneapolis, MO, USA) was diluted and evaluated in 25 mM Tris, 2.5 μM ZnCl2, 0.005% Brij-35, pH 9.0. All stocks of the compounds were evaluated for the presence of endotoxin using the EndoZyme II assay (Hyglos bioMérieux, Bernried am Starnberger See, Germany). […]
To determine the inhibition of gelatinolytic activity, we used a previously optimized gelatin degradation assay. […] Next, dye-quenched gelatin (DQ™-gelatin, Invitrogen, Carlsbad, CA, USA) was added at a final concentration of 2.5 µg/mL and the increase in fluorescence over time was measured with the CLARIOstar microplate reader (BMG Labtech, Ortenberg, Germany). […]

T1 sequence (P14780 107-707 limits assumed): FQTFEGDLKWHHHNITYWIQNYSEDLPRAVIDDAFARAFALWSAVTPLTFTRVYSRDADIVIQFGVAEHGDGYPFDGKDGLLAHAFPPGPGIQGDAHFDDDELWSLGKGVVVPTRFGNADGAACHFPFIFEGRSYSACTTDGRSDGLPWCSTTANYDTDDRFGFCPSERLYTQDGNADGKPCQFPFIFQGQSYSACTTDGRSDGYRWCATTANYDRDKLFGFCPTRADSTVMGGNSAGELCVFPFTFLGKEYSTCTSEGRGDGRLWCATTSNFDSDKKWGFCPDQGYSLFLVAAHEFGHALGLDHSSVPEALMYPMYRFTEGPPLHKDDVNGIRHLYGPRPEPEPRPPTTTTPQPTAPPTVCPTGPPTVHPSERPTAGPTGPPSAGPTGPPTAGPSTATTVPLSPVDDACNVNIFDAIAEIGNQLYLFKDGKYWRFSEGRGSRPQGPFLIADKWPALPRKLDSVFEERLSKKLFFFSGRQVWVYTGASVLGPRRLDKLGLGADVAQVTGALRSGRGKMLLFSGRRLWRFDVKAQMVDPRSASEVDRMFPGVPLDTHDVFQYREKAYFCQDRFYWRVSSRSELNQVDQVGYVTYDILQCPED

Structure (SMILES) | IC25 [1] | IC50 [1] | IC75 [1] | IC50 [2]
CC(C)[C@H](C(=O)O)N(CCNC(=O)c1cccc(C(=O)NCCN([C@@H](C(=O)O)C(C)C)S(=O)(=O)c2ccc(-c3ccccc3)cc2)c1)S(=O)(=O)c1ccc(-c2ccccc2)cc1 [Compound 7] | 10 nM | 43 nM | 181 nM | no inhibition ^†
CC(C)[C@H](C(=O)O)N(CCNC(=O)c1ccccc1)S(=O)(=O)c1ccc(-c2ccccc2)cc1 [Compound 5] | 300 nM | 1150 nM | 4431 nM | no inhibition ^†
